{
  "source": "the supplement of paper PMC10307832",
  "assay_in_all_cases": "relative viability (nuclei count vs DMSO), 5 days (fraction); higher = more cells survive",
  "key": {"[1]": {"tested_on": "NCI-H2023", "outline": "(§1)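 Medians of duplicate plates are given as relative viability. That measure is the nuclei count in treated wells divided by the count in vehicle wells. Counts were taken on 4× images of lung cancer cell lines in 1536-well plates, 5 days after pin-tool dosing the day after seeding with one drug alone or a fixed anchor-drug dose plus five library-drug doses (not always all listed) in √10 steps.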"}, "[2]": {"tested_on": "UMC-11", "outline": "as §1"}, "[3]": {"tested_on": "NCI-H1395", "outline": "as §1"}, "[4]": {"tested_on": "NCI-H1563", "outline": "as §1"}, "[5]": {"tested_on": "NCI-H1915", "outline": "as §1"}, "[6]": {"tested_on": "CAL-12T", "outline": "as §1"}, "[7]": {"tested_on": "NCI-H1734", "outline": "as §1"}, "[8]": {"tested_on": "NCI-H2405", "outline": "as §1"}, "[9]": {"tested_on": "HCC-44", "outline": "as §1"}, "[10]": {"tested_on": "A-427", "outline": "as §1"}, "[11]": {"tested_on": "SW 1573", "outline": "as §1"}, "[12]": {"tested_on": "EPLC-272H", "outline": "as §1"}, "[13]": {"tested_on": "LCLC-97TM1", "outline": "as §1"}, "[14]": {"tested_on": "NCI-H2347", "outline": "as §1"}, "[15]": {"tested_on": "NCI-H1975", "outline": "as §1"}, "[16]": {"tested_on": "COR-L 105", "outline": "as §1"}, "[17]": {"tested_on": "NCI-H520", "outline": "as §1"}, "[18]": {"tested_on": "NCI-H838", "outline": "as §1"}, "[19]": {"tested_on": "HCC-15", "outline": "as §1"}, "[20]": {"tested_on": "NCI-H1792", "outline": "as §1"}, "[21]": {"tested_on": "LC-2-ad", "outline": "as §1"}},
  "data": [
    {"molecule": "Cc1cn(-c2cc(NC(=O)c3ccc(C)c(Nc4nccc(-c5cccnc5)n4)c3)cc(C(F)(F)F)c2)cn1", "note": "[Nilotinib] + CS(=O)(=O)N1CCN(Cc2cc3nc(-c4cccc5[nH]ncc45)nc(N4CCOCC4)c3s2)CC1 [Pictilisib] (partner 1 µM)", "values": [
      {"measurement": "relative viability", "setting": "[1]; first compound 0.001 µM", "value": 0.225},
      {"measurement": "relative viability", "setting": "[1]; first compound 0.003162 µM", "value": 0.192},
      {"measurement": "relative viability", "setting": "[1]; first compound 0.01 µM", "value": 0.226},
      {"measurement": "relative viability", "setting": "[1]; first compound 0.03162 µM", "value": 0.221},
      {"measurement": "relative viability", "setting": "[1]; first compound 0.1 µM", "value": 0.101},
      {"measurement": "relative viability", "setting": "[2]; first compound 0.001 µM", "value": 0.801},
      {"measurement": "relative viability", "setting": "[2]; first compound 0.003162 µM", "value": 1.03},
      {"measurement": "relative viability", "setting": "[2]; first compound 0.01 µM", "value": 0.972},
      {"measurement": "relative viability", "setting": "[2]; first compound 0.1 µM", "value": 0.287},
      {"measurement": "relative viability", "setting": "[3]; first compound 0.001 µM", "value": 0.711},
      {"measurement": "relative viability", "setting": "[3]; first compound 0.003162 µM", "value": 0.581},
      {"measurement": "relative viability", "setting": "[3]; first compound 0.01 µM", "value": 0.566},
      {"measurement": "relative viability", "setting": "[3]; first compound 0.03162 µM", "value": 0.552},
      {"measurement": "relative viability", "setting": "[3]; first compound 0.1 µM", "value": 0.401},
      {"measurement": "relative viability", "setting": "[4]; first compound 0.001 µM", "value": 0.553},
      {"measurement": "relative viability", "setting": "[4]; first compound 0.003162 µM", "value": 0.608},
      {"measurement": "relative viability", "setting": "[4]; first compound 0.01 µM", "value": 0.649},
      {"measurement": "relative viability", "setting": "[4]; first compound 0.03162 µM", "value": 0.602},
      {"measurement": "relative viability", "setting": "[4]; first compound 0.1 µM", "value": 0.46},
      {"measurement": "relative viability", "setting": "[5]; first compound 0.001 µM", "value": 0.958},
      {"measurement": "relative viability", "setting": "[5]; first compound 0.003162 µM", "value": 1.02},
      {"measurement": "relative viability", "setting": "[5]; first compound 0.01 µM", "value": 0.903},
      {"measurement": "relative viability", "setting": "[5]; first compound 0.03162 µM", "value": 0.993},
      {"measurement": "relative viability", "setting": "[5]; first compound 0.1 µM", "value": 0.408},
      {"measurement": "relative viability", "setting": "[6]; first compound 0.001 µM", "value": 0.45},
      {"measurement": "relative viability", "setting": "[6]; first compound 0.01 µM", "value": 0.354},
      {"measurement": "relative viability", "setting": "[6]; first compound 0.03162 µM", "value": 0.307},
      {"measurement": "relative viability", "setting": "[6]; first compound 0.1 µM", "value": 0.398},
      {"measurement": "relative viability", "setting": "[7]; first compound 0.001 µM", "value": 0.445},
      {"measurement": "relative viability", "setting": "[7]; first compound 0.003162 µM", "value": 0.48},
      {"measurement": "relative viability", "setting": "[7]; first compound 0.01 µM", "value": 0.447},
      {"measurement": "relative viability", "setting": "[7]; first compound 0.03162 µM", "value": 0.384},
      {"measurement": "relative viability", "setting": "[7]; first compound 0.1 µM", "value": 0.236},
      {"measurement": "relative viability", "setting": "[8]; first compound 0.001 µM", "value": 0.426},
      {"measurement": "relative viability", "setting": "[8]; first compound 0.003162 µM", "value": 0.404},
      {"measurement": "relative viability", "setting": "[8]; first compound 0.01 µM", "value": 0.315},
      {"measurement": "relative viability", "setting": "[8]; first compound 0.03162 µM", "value": 0.296},
      {"measurement": "relative viability", "setting": "[8]; first compound 0.1 µM", "value": 0.345},
      {"measurement": "relative viability", "setting": "[9]; first compound 0.001 µM", "value": 0.607},
      {"measurement": "relative viability", "setting": "[9]; first compound 0.003162 µM", "value": 0.743},
      {"measurement": "relative viability", "setting": "[9]; first compound 0.01 µM", "value": 0.589},
      {"measurement": "relative viability", "setting": "[9]; first compound 0.03162 µM", "value": 0.517},
      {"measurement": "relative viability", "setting": "[9]; first compound 0.1 µM", "value": 0.37},
      {"measurement": "relative viability", "setting": "[10]; first compound 0.001 µM", "value": 0.728},
      {"measurement": "relative viability", "setting": "[10]; first compound 0.01 µM", "value": 0.731},
      {"measurement": "relative viability", "setting": "[10]; first compound 0.03162 µM", "value": 0.658},
      {"measurement": "relative viability", "setting": "[10]; first compound 0.1 µM", "value": 0.11},
      {"measurement": "relative viability", "setting": "[11]; first compound 0.001 µM", "value": 0.486},
      {"measurement": "relative viability", "setting": "[11]; first compound 0.003162 µM", "value": 0.652},
      {"measurement": "relative viability", "setting": "[11]; first compound 0.01 µM", "value": 0.5},
      {"measurement": "relative viability", "setting": "[11]; first compound 0.03162 µM", "value": 0.427},
      {"measurement": "relative viability", "setting": "[11]; first compound 0.1 µM", "value": 0.588},
      {"measurement": "relative viability", "setting": "[12]; first compound 0.001 µM", "value": 0.273},
      {"measurement": "relative viability", "setting": "[12]; first compound 0.003162 µM", "value": 0.308},
      {"measurement": "relative viability", "setting": "[12]; first compound 0.01 µM", "value": 0.258},
      {"measurement": "relative viability", "setting": "[12]; first compound 0.03162 µM", "value": 0.338},
      {"measurement": "relative viability", "setting": "[12]; first compound 0.1 µM", "value": 0.258},
      {"measurement": "relative viability", "setting": "[13]; first compound 0.001 µM", "value": 0.184},
      {"measurement": "relative viability", "setting": "[13]; first compound 0.003162 µM", "value": 0.213},
      {"measurement": "relative viability", "setting": "[13]; first compound 0.01 µM", "value": 0.16},
      {"measurement": "relative viability", "setting": "[13]; first compound 0.03162 µM", "value": 0.167},
      {"measurement": "relative viability", "setting": "[13]; first compound 0.1 µM", "value": 0.123},
      {"measurement": "relative viability", "setting": "[14]; first compound 0.001 µM", "value": 0.644},
      {"measurement": "relative viability", "setting": "[14]; first compound 0.003162 µM", "value": 0.679},
      {"measurement": "relative viability", "setting": "[14]; first compound 0.01 µM", "value": 0.717},
      {"measurement": "relative viability", "setting": "[14]; first compound 0.03162 µM", "value": 0.635},
      {"measurement": "relative viability", "setting": "[14]; first compound 0.1 µM", "value": 0.401},
      {"measurement": "relative viability", "setting": "[15]; first compound 0.001 µM", "value": 0.299},
      {"measurement": "relative viability", "setting": "[15]; first compound 0.003162 µM", "value": 0.358},
      {"measurement": "relative viability", "setting": "[15]; first compound 0.01 µM", "value": 0.231},
      {"measurement": "relative viability", "setting": "[15]; first compound 0.03162 µM", "value": 0.312},
      {"measurement": "relative viability", "setting": "[15]; first compound 0.1 µM", "value": 0.19},
      {"measurement": "relative viability", "setting": "[16]; first compound 0.001 µM", "value": 0.435},
      {"measurement": "relative viability", "setting": "[16]; first compound 0.01 µM", "value": 0.407},
      {"measurement": "relative viability", "setting": "[16]; first compound 0.03162 µM", "value": 0.437},
      {"measurement": "relative viability", "setting": "[16]; first compound 0.1 µM", "value": 0.331},
      {"measurement": "relative viability", "setting": "[17]; first compound 0.001 µM", "value": 0.283},
      {"measurement": "relative viability", "setting": "[17]; first compound 0.01 µM", "value": 0.296},
      {"measurement": "relative viability", "setting": "[17]; first compound 0.03162 µM", "value": 0.283},
      {"measurement": "relative viability", "setting": "[17]; first compound 0.1 µM", "value": 0.232},
      {"measurement": "relative viability", "setting": "[18]; first compound 0.001 µM", "value": 0.408},
      {"measurement": "relative viability", "setting": "[18]; first compound 0.003162 µM", "value": 0.491},
      {"measurement": "relative viability", "setting": "[18]; first compound 0.01 µM", "value": 0.335},
      {"measurement": "relative viability", "setting": "[18]; first compound 0.03162 µM", "value": 0.41},
      {"measurement": "relative viability", "setting": "[18]; first compound 0.1 µM", "value": 0.336},
      {"measurement": "relative viability", "setting": "[19]; first compound 0.001 µM", "value": 0.703},
      {"measurement": "relative viability", "setting": "[19]; first compound 0.003162 µM", "value": 0.874},
      {"measurement": "relative viability", "setting": "[19]; first compound 0.01 µM", "value": 0.843},
      {"measurement": "relative viability", "setting": "[19]; first compound 0.03162 µM", "value": 0.542},
      {"measurement": "relative viability", "setting": "[19]; first compound 0.1 µM", "value": 0.301},
      {"measurement": "relative viability", "setting": "[20]; first compound 0.001 µM", "value": 0.209},
      {"measurement": "relative viability", "setting": "[20]; first compound 0.01 µM", "value": 0.266},
      {"measurement": "relative viability", "setting": "[21]; first compound 0.001 µM", "value": 0.385},
      {"measurement": "relative viability", "setting": "[21]; first compound 0.003162 µM", "value": 0.518},
      {"measurement": "relative viability", "setting": "[21]; first compound 0.01 µM", "value": 0.547},
      {"measurement": "relative viability", "setting": "[21]; first compound 0.03162 µM", "value": 0.379},
      {"measurement": "relative viability", "setting": "[21]; first compound 0.1 µM", "value": 0.117}
    ]}
  ]
}
